Laboratory results as given in patent US8551999B2, “Heterocyclic compound and pharmaceutical composition thereof” (Otsuka Pharmaceutical Co., Ltd., priority 2007, dated 2013).

In the case of `Br.Br.Cn1c(C(=O)N2CCN(Cc3ccncc3)CC2)cc2cc(Oc3ccc(NC(=O)c4ccc(C(F)(F)F)cc4)cn3)ccc21` [Example 550, N-{6-[1-Methyl-2-(4-pyridin-4-ylmethylpiperazine-1-carbonyl)-1H-indol-5-yloxy]pyridin-3-yl}-4-trifluoromethylbenzamide dihydrobromide], the melting point is reported as 211 to 215 °C (dec.).
In the case of `Br.COc1ccc(CN2CCN(C(=O)c3cc4cc(Oc5ccc(NC(=O)c6ccc(Cl)c(Cl)c6)cn5)ccc4n3C)CC2)cc1` [Example 349, 3,4-Dichloro-N-(6-{2-[4-(4-methoxybenzyl)piperazine-1-carbonyl]-1-methyl-1H-indol-5-yloxy}pyridin-3-yl)benzamide hydrobromide], the melting point is reported as 244 to 247 °C (dec.).
With `Br.Br.Cn1c(C(=O)N2CCN(Cc3cccnc3)CC2)cc2cc(Oc3ccc(NC(=O)c4ccc(Cl)c(Cl)c4)cn3)ccc21` [Example 563, 3,4-Dichloro-N-{6-[1-methyl-2-(4-pyridin-3-ylmethylpiperazine-1-carbonyl)-1H-indol-5-yloxy]pyridin-3-yl}benzamide dihydrobromide] the melting point was 249 to 252 °C (dec.).
In the case of `Br.CN(C(=O)c1ccc(C(F)(F)F)cc1)c1ccc(Oc2ccc3c(c2)cc(C(=O)N2CCN(Cc4ccc(C(F)(F)F)cc4)CC2)n3C)nc1` [Example 553, N-Methyl-N-(6-{1-methyl-2-[4-(4-trifluoromethylbenzyl)piperazine-1-carbonyl]-1H-indol-5-yloxy}pyridin-3-yl)-4-trifluoromethyl-benzamide hydrobromide], the melting point is reported as 254 to 260 °C (dec.).

First: COc1ccc(CN2CCN(C(=O)c3cc4c(C)c(Oc5ccc(N(C)C(=O)c6ccc(C(F)(F)F)cc6)cn5)ccc4n3C)CC2)cc1 [Example 426, N-(6-{2-[4-(4-Methoxybenzyl)piperazine-1-carbonyl]-1,4-dimethyl-1H-indol-5-yloxy}pyridin-3-yl)-N-methyl-4-trifluoromethyl-benzamide]
Second: Br.CC(C)c1ccc(CN2CCN(C(=O)c3cc4ccc(Oc5ccc(N(C)C(=O)c6ccc(C(F)(F)F)cc6)cn5)cc4n3C)CC2)cc1 [Example 429, N-(6-{2-[4-(4-Isopropylbenzyl)piperazine-1-carbonyl]-1-methyl-1H-indol-6-yloxy}pyridin-3-yl)-N-methyl-4-trifluoromethylbenzamide hydrobromide]
The melting point of the first is lower: 184 to 186 °C for the first, 255 to 258 °C for the second.

First: Br.CCCOc1ccc(CN2CCN(C(=O)c3cc4ccc(Oc5ccc(NC(=O)c6ccc(C(F)(F)F)cc6)cn5)cc4n3C)CC2)cc1 [Example 475, N-(6-{1-Methyl-2-[4-(4-propoxybenzyl)piperazine-1-carbonyl]-1H-indol-6-yloxy}pyridin-3-yl)-4-trifluoromethylbenzamide hydrobromide]
Second: Br.CN(C(=O)c1ccc(C(F)(F)F)cc1)c1ccc(Oc2ccc3cc(C(=O)N4CCN(Cc5ccc(OCCF)cc5)CC4)n(C)c3c2)nc1 [Example 438, N-[6-(2-{4-[4-(2-Fluoroethoxy)benzyl]piperazine-1-carbonyl}-1-methyl-1H-indol-6-yloxy)pyridin-3-yl]-N-methyl-4-trifluoromethyl-benzamide hydrobromide]
The melting point of the first is higher: 254 to 255.7 °C for the first, 215.3 to 216.6 °C for the second.

Compared with `Br.Cn1c(C(=O)N2CCN(Cc3ccc(OCC(F)(F)F)cc3)CC2)cc2ccc(Oc3ccc(NC(=O)c4ccc(Cl)c(Cl)c4)cn3)cc21` [Example 465, 3,4-Dichloro-N-[6-(1-methyl-2-{4-[4-(2,2,2-trifluoroethoxy)-benzyl]piperazine-1-carbonyl}-1H-indol-6-yloxy)pyridin-3-yl]-benzamide hydrobromide], `Br.Cn1c(C(=O)N2CCN(Cc3ccc(OC(CF)CF)cc3)CC2)cc2ccc(Oc3ccc(NC(=O)c4ccc(C(F)(F)F)cc4Cl)cn3)cc21` [Example 537, 2-Chloro-N-[6-(2-{4-[4-(2-fluoro-1-fluoromethylethoxy)benzyl]-piperazine-1-carbonyl}-1-methyl-1H-indol-6-yloxy)pyridin-3-yl]-4-trifluoromethylbenzamide hydrobromide] is lower in melting point: 251.8 to 253.5 °C for the first, 239.8 to 240.8 °C for the second.

First: COc1ccc(CN2CCN(C(=O)c3cc4cc(Oc5ccc(N(C)C(=O)c6ccc(C(F)(F)F)cc6Cl)cn5)ccc4n3C)CC2)cc1.O=C(O)C(=O)O [Example 16, 2-Chloro-N-(6-{2-[4-(4-methoxybenzyl)piperazine-1-carbonyl]-1-methyl-1H-indol-5-yloxy}pyridin-3-yl)-N-methyl-4-trifluoromethyl-benzamide oxalate]
Second: CC(C)Oc1ccc(CN2CCN(C(=O)c3cc4cc(Oc5ccc(N(C)C(=O)c6ccc(C(F)(F)F)cc6)cn5)ccc4n3C)CC2)cc1.O=C(O)/C=C\C(=O)O [Example 410, N-(6-{2-[4-(4-Isopropoxybenzyl)piperazine-1-carbonyl]-1-methyl-1H-indol-5-yloxy}pyridin-3-yl)-N-methyl-4-trifluoromethyl-benzamide maleate]
The melting point of the first is higher: 163 to 165 °C for the first, 140 to 142 °C for the second.

First: CN(C(=O)c1ccc(C(F)(F)F)cc1)c1ccc(Oc2ccc3c(c2)cc(C(=O)N2CCN(Cc4ccccn4)CC2)n3C)nc1.O=C(O)C(=O)O.O=C(O)C(=O)O [Example 561, N-Methyl-N-{6-[1-methyl-2-(4-pyridin-2-ylmethylpiperazine-1-carbonyl)-1H-indol-5-yloxy]pyridin-3-yl}-4-trifluoromethyl-benzamide dioxalate]
Second: Cn1c(C(=O)N2CCN(Cc3ccccn3)CC2)cc2cccc(Oc3ccc(NC(=O)c4ccc(C(F)(F)F)cc4)cn3)c21.O=C(O)C(=O)O.O=C(O)C(=O)O [Example 243, N-{6-[1-Methyl-2-(4-pyridin-2-ylmethylpiperazine-1-carbonyl)-1H-indol-7-yloxy]pyridin-3-yl}-4-trifluoromethylbenzamide dioxalate]
The melting point of the first is lower: 114 to 117 °C for the first, 121 to 123 °C for the second.

First: Br.Cn1c(C(=O)N2CCN(Cc3ccc(OC(F)(F)C(F)F)cc3)CC2)cc2cc(Oc3ccc(NC(=O)c4ccc(C(F)(F)F)cc4)cn3)ccc21 [Example 402, N-[6-(1-Methyl-2-{4-[4-(1,1,2,2-tetrafluoroethoxy)benzyl]-piperazine-1-carbonyl}-1H-indol-5-yloxy)pyridin-3-yl]-4-tri-fluoromethylbenzamide hydrobromide]
Second: Br.CCOc1ccc(CN2CCN(C(=O)c3cc4cc(Oc5ccc(NC(=O)c6ccc(C(F)(F)F)cc6)cn5)ccc4n3C)CC2)cc1OCC [Example 340, N-(6-{2-[4-(3,4-Diethoxybenzyl)piperazine-1-carbonyl]-1-methyl-1H-indol-5-yloxy}pyridin-3-yl)-4-trifluoromethylbenzamide hydrobromide]
The melting point of the first is higher: 255 to 257 °C for the first, 196 to 198 °C for the second.

Compared with `Cc1ccc(C(=O)N(C)c2ccc(Oc3ccc4cc(C(=O)N5CCN(Cc6ccc(OC(F)F)cc6)CC5)n(C)c4c3)nc2)cc1` [Example 276, N-(6-{2-[4-(4-Difluoromethoxybenzyl)piperazine-1-carbonyl]-1-methyl-1H-indol-6-yloxy}pyridin-3-yl)-4,N-dimethylbenzamide], `Cc1ccc(S(=O)(=O)N(C)c2ccc(Oc3ccc4cc(C(=O)N5CCN(Cc6ccc(OCC(F)F)cc6)CC5)n(C)c4c3)nc2)cc1` [Example 524, N-[6-(2-{4-[4-(2,2-Difluoroethoxy)benzyl]piperazine-1-carbonyl}-1-methyl-1H-indol-6-yloxy)pyridin-3-yl]-4,N-dimethylbenzene-sulfonamide] is lower in melting point: 140.1 to 141.3 °C for the first, 121.9 to 122.5 °C for the second.

First: Br.CCN(C(=O)c1ccc(C(F)(F)F)cc1)c1ccc(Oc2ccc3cc(C(=O)N4CCN(Cc5ccc(OCC(F)(F)F)cc5)CC4)n(C)c3c2)nc1 [Example 26, N-Ethyl-N-[6-(1-methyl-2-{4-[4-(2,2,2-trifluoroethoxy)benzyl]-piperazine-1-carbonyl}-1H-indol-6-yloxy)pyridin-3-yl]-4-tri-fluoromethylbenzamide hydrobromide]
Second: Br.CN(c1ccc(Oc2ccc3cc(C(=O)N4CCN(Cc5ccc(OCC(F)(F)F)cc5)CC4)n(C)c3c2)nc1)S(=O)(=O)c1ccccc1 [Example 30, N-Methyl-N-[6-(1-methyl-2-{4-[4-(2,2,2-trifluoroethoxy)benzyl]-piperazine-1-carbonyl}-1H-indol-6-yloxy)pyridin-3-yl]benzene-sulfonamide hydrobromide]
The melting point of the first is lower: 189.8 to 192.8 °C for the first, 234.6 to 235.2 °C for the second.

Compared with `COc1ccc(CN2CCN(C(=O)c3cc4cc(Oc5ccc(N(C)C(=O)c6ccc(-n7cccc7)nc6)cn5)ccc4n3C)CC2)cc1.O=C(O)C(=O)O.O=C(O)C(=O)O` [Example 227, N-(6-{2-[4-(4-Methoxybenzyl)piperazine-1-carbonyl]-1-methyl-1H-indol-5-yloxy}pyridin-3-yl)-N-methyl-6-pyrrol-1-ylnicotinamide dioxalate], `COc1ccc(CN2CCN(C(=O)c3cc4cc(Oc5ccc(N(C)C(=O)c6cc7cc(Br)ccc7[nH]6)cn5)ccc4n3C)CC2)cc1.O=C(O)/C=C\C(=O)O` [Example 229, 5-Bromo-1H-indole-2-carboxylic acid (6-{2-[4-(4-methoxybenzyl)-piperazine-1-carbonyl]-1-methyl-1H-indol-5-yloxy}pyridin-3-yl)-methylamide maleate] is higher in melting point: 185 to 187 °C for the first, 205 to 207 °C for the second.

`CCN(C(=S)Nc1ccc(Cl)c(Cl)c1)c1ccc(Oc2ccc3c(c2)cc(C(=O)N2CCN(Cc4ccc5c(c4)OCO5)CC2)n3C)nc1.Cl` and `CN(C(=O)c1ccc(C(F)(F)F)cc1)c1ccc(Oc2ccc3c(c2)cc(C(=O)N2CCN(Cc4ccc5c(c4)OC(F)(F)O5)CC2)n3C)nc1.O=C(O)C(=O)O` [Example 439, N-(6-{2-[4-(2,2-Difluorobenzo[1,3]dioxol-5-ylmethyl)piperazine-1-carbonyl]-1-methyl-1H-indol-5-yloxy}pyridin-3-yl)-N-methyl-4-tri-fluoromethylbenzamide oxalate] cannot be ordered by melting point: 152 to 160 °C for the first, 155.7 to 156.9 °C for the second.

In the case of `Br.Cc1cc(Oc2ccc3cc(C(=O)N4CCN(Cc5ccc(OCC(F)(F)F)cc5)CC4)n(C)c3c2)ncc1N(C)S(C)(=O)=O` [Example 78, N-Methyl-N-[4-methyl-6-(1-methyl-2-{4-[4-(2,2,2-trifluoroethoxy)-benzyl]piperazine-1-carbonyl}-1H-indol-6-yloxy)pyridin-3-yl]-methanesulfonamide hydrobromide], the melting point is reported as 235.8 to 237.8 °C.
